Each structure is given as a SMILES string. Read-outs that look alike come from different tables or passages of the source. Some results are limits rather than exact numbers.

Here are results for ten compounds from patent US9328138B2 (priority 2011, dated 2016).

Assay [1] addresses HCV NS3 protease genotype 3a (3A-1) (Hepatitis C virus genotype 3a, UniProt Q81258). Description: HCV NS3 protease time-resolved fluorescence (TRF) assay, genotype 3a. The class given is biochemical. How it is done:
(§1) The HCV NS3 protease inhibitory activity of the present compounds may be tested using assays known in the art. One such assay is HCV NS3 protease time-resolved fluorescence (TRF) assay as described below and in International Patent Application Publication No. WO2006/102087. Other examples of such assays are described in e.g., International Patent Application Publication No. WO2005/046712. The assay is performed in a final volume of 100 μl in assay buffer containing 50 mM HEPES, pH 7.5, 150 mM NaCl, 15% glycerol, 0.15% Triton X-100, 10 mM DTT, and 0.1% PEG 8000. NS3 protease is pre-incubated with various concentrations of inhibitors in DMSO for 30 minutes. The reaction is initiated by adding the TRF peptide substrate (final concentration 100 nM). NS3 mediated hydrolysis of the substrate is quenched after 1 hour at room temperature with 100 μl of 500 mM MES, pH 5.5. Product fluorescence is detected using either a VICTOR V2 or FUSION fluorophotometer (Perkin Elmer Life and Analytical Sciences) with excitation at 340 nm and emission at 615 nm with a 400 μs delay. Testing concentrations of different enzyme forms are selected to result in a signal to background ratio (S/B) of 10-30. IC50 values are derived using a standard four-parameter fit to the data. K; values are derived from IC50 values using the following formula, IC50=Ki(1+[S]/Km), Eqn (1), where [S] is the concentration of substrate peptide in the reaction and KM is the Michaelis constant. See Gallinari et al., 1999, Biochem. 38:5620-32; Gallinari et al., 1998, J. Virol. 72:6758-69; Taliani et al., 1996, Anal. Biochem. 240:60-67.
(§2) The HCV NS3 protease inhibitory activity was measured using the protease time-resolved fluorescence (TRF) assay as described below and in International Patent Application Publication No. WO 2006/102087. The assay was performed with HCV genotype 1b (BK) NS3 modified enzyme with a R155K mutation and genotype 3a (3A-1).
(§3) The assay was performed in a final volume of 50 μl in assay buffer containing 50 mM HEPES, pH 7.5, 150 mM NaCl, 15% glycerol, 0.15% TRITON X-100, 10 mM DTT, and 0.1% PEG 8000. NS3 and NS4A protease is pre-incubated with various concentrations of inhibitors in DMSO for 10 minutes. The reaction was initiated by adding the TRF peptide substrate (final concentration 25 nM) and NS3 mediated hydrolysis of the substrate proceeds for 6 hours at room temperature. Product fluorescence is detected using an Envision plate reader (Perkin Elmer) with excitation at 340 nm and emission at 615 nm with a 400 μs delay. Testing concentrations of the enzymes were selected to result in a signal to background ratio (S/B) of 5-20. IC50 values are derived using a standard four-parameter fit to the data.
(§4) NS3 and NS4A protease is pre-incubated with various concentrations of inhibitors in DMSO for 30 minutes. The reaction is initiated by adding the TRF peptide substrate (final concentration 100 nM). NS3 mediated hydrolysis of the substrate is quenched after 1 hour at room temperature with 100 μl of 500 mM MES, pH 5.5. Product fluorescence is detected using either a VICTOR V2 or FUSION fluorophotometer (Perkin Elmer Life and Analytical Sciences) with excitation at 340 nm and emission at 615 nm with a 400 μs delay. Testing concentrations of the enzymes are selected to result in a signal to background ratio (S/B) of 8-30. IC50 values are derived using a standard four-parameter fit to the data. Ki values are derived from IC50 values using the following formula, IC50=Ki(1+[S][…]), Eqn (1), where [S] is the concentration of substrate peptide in the reaction and KM is the Michaelis constant. See Gallinari et al., 1999, Biochem. 38:5620-32; Gallinari et al., 1998, J. Virol. 72:6758-69; and Taliani et al., 1996, Anal. Biochem. 240:60-67. ND means not determined.

Assay [2] addresses T1, HCV genotype 1b (BK) NS3 modified enzyme with a R155K mutation (Hepatitis C virus genotype 1b, UniProt P26663, R1181K).
T1 construct: HCV genotype 1b (BK) NS3 modified enzyme
Description: HCV NS3 protease time-resolved fluorescence (TRF) assay, genotype 1b R155K. The class given is biochemical. The following applies: Ki 1b R155K, genotype 1b (BK) NS3 R155K; single value. On the procedure:
as §1, §2, §3, §4

As usually defined, the Ki is a dissociation constant, usually derived from enzyme kinetics or from competition with a known ligand. For the compound `C=C[C@@H]1C[C@]1(NC(=O)[C@@H]1C[C@@H]2CN1C(=O)[C@H](C1CCCC1)NC(=O)O[C@@H]1CCC[C@H]1CC/C=C/Cc1c(nc3cccc(Cl)c3c1OC)O2)C(=O)NS(=O)(=O)C1CC1` [Example 10, (3aR,7S,10S,12R,21E,24aS)-18-chloro-7-cyclopentyl-N-{(1R,2S)-1-[(cyclopropylsulfonyl)carbamoyl]-2-ethenylcyclopropyl}-19-methoxy-5,8-dioxo-1,2,3,3a,5,6,7,8,11,12,20,23,24,24a-tetradecahydro-10H-9,12-methanocyclopenta [18,19][1,10,3,6]dioxadiazacyclononadecino [11,12-b]quinoline-10-carboxamide], the results for the Ki in assay [1] (Ki 3a) and in assay [2] were 11 nM and 0.19 nM, respectively.

Consider `C=C[C@@H]1C[C@]1(NC(=O)[C@@H]1C[C@@H]2CN1C(=O)[C@H](C1CCCC1)NC(=O)O[C@@H]1C[C@H]1CC/C=C/Cc1c(nc3ccccc3c1OC)O2)C(=O)NS(=O)(=O)C1CC1` [Example 11, (1aR,5S,10R,19E,22aR)-5-cyclo pentyl-N-{(1R,2S)-1-[(cyclopropylsulfonyl)carbamoyl]-2-ethenylcyclopropyl}-17-methoxy-3,6-dioxo-1,1a, 3,4,5,6,9,10,18,21,22,22a-dodeca hydro-8H-7,10-methanocyclopropa[18,19][1,10,3,6] dioxadiazacyclononadecino[11,12-b] quinoline-8-carboxamide], for which the Ki was found to be 11 nM in assay [1] (Ki 3a) and 0.26 nM in assay [2].

In the case of `C=C[C@@H]1C[C@]1(NC(=O)[C@@H]1C[C@@H]2CN1C(=O)[C@H](C1CCCC1)NC(=O)O[C@H]1C[C@@H]1CC/C=C/Cc1c(nc3ccccc3c1OC)O2)C(=O)NS(=O)(=O)C1CC1` [Example 12, (1aS,5S,8S,10R,19E,22aS)-5-cyclo pentyl-N-{(1R,2S)-1-[(cyclopropylsulfonyl)carbamoyl]-2-ethenylcyclopropyl}-17-methoxy-3,6-dioxo-1,1a,3,4,5,6,9,10,18,21,22,22a-dodecahydro-8H-7,10-methanocyclopropa[18,19][1,10,3,6] dioxadiazacyclononadecino[11,12-&]quinoline-8-carboxamide], the Ki in assay [1] (Ki 3a) worked out at 340 nM; in assay [2], 3.3 nM.

Turning to `COc1c2c(nc3ccccc13)O[C@@H]1C[C@@H](C(=O)N[C@]3(C(=O)NS(=O)(=O)C4CC4)C[C@H]3C3CC3)N(C1)C(=O)[C@H](C1CCCC1)NC(=O)O[C@@H]1CCC[C@H]1CC/C=C/C2` [Example 13, (3aR,7S,10S,12R,21E,24aS)-7-cyclopentyl-N-[(1S,2R)-2-[(cyclopropylsulfonyl)carbamoyl]-1,1′-bi(cyclopropyl)-2-yl]-19-methoxy-5,8-dioxo-1,2,3,3a,5,6,7,8,11,12,20,23,24,24a-tetradecahydro-10H-9,12-methanocyclopenta[18,19][1,10,3,6] dioxadiazacyclononadecino[11,12-b]quinoline-10-carboxamide], the Ki in assay [1] (Ki 3a) came to 15 nM; in assay [2], 0.93 nM.

With `C=C[C@@H]1C[C@]1(NC(=O)[C@@H]1C[C@@H]2CN1C(=O)[C@H](C1CCCC1)NC(=O)O[C@]1(C)CCC[C@H]1CC/C=C/Cc1c(nc3ccccc3c1OCc1ccccc1)O2)C(=O)NS(=O)(=O)C1CC1` [Example 14, (3aR,7S,10S,12R,21E,24aS)-19-(benzyloxy)-7-cyclopentyl-N-{(1R,2S)-1-[(cyclopropylsulfonyl)carbamoyl]-2-ethenylcyclopropyl}-3a-methyl-5,8-dioxo-1,2,3,3a,5,6,7,8,11,12,20,23,24,24a-tetradecahydro-10H-9,12-methanocyclopenta[18,19] [1,10,3,6]dioxadiazacyclononadecino[11,12-b] quinoline-10-carboxamide], the Ki in assay [1] (read-out: Ki 3a) came to 28 nM; in assay [2], 0.81 nM.

Take `C=C[C@@H]1C[C@]1(NC(=O)[C@@H]1C[C@@H]2CN1C(=O)[C@H](C1CCCC1)NC(=O)O[C@@H]1CCC[C@H]1CC/C=C/Cc1c(nc3ccccc3c1OCc1ccccc1)O2)C(=O)NS(=O)(=O)C1(C)CC1` [Example 15, (3aR,7S,10S,12R,21E,24aS)-19-(benzyloxy)-7-cyclopentyl-N-[(1H,2S)-2-ethenyl-1-{[(1-methylcyclopropyl)sulfonyl]carbamoyl}cyclopropyl]-5,8-dioxo-1,2,3,3a,5,6,7,8,11,12,20,23,24,24a-tetradecahydro-10H-9,12-methanocyclopenta[18,19] [1,10,3,6]dioxadiazacyclononadecino[11,12-b] quinoline-10-carboxamide]: the Ki in assay [1] (Ki 3a) was 36 nM; in assay [2], 0.81 nM.

With `C=C[C@@H]1C[C@]1(NC(=O)[C@@H]1C[C@@H]2CN1C(=O)[C@H](C1CCCC1)NC(=O)N1CC[C@@H](C1)OCCC/C=C/Cc1c(nc3ccccc3c1OCC)O2)C(=O)NS(=O)(=O)C1CC1` [Example 16, (2R,4S,7S,13S,18E)-7-cyclopentyl-N-{(1R,2S)-1-[(cyclopropylsulfonyl)carbamoyl]-2-ethenylcyclo-propyl}-21-ethoxy-6,9-dioxo-3,4,6,7,8,9,12,13, 15,16,17,20-dodecahydro-2H,11H-2,5:10,13-dimethano[1,14,5,7,10]dioxatriazacyclodocosino [15,16-b]quinoline-4-carboxamide], the Ki came to 70 nM in assay [1] (Ki 3a) and 1.1 nM in assay [2].

As for `C=C[C@@H]1C[C@]1(NC(=O)[C@@H]1C[C@@H]2CN1C(=O)[C@H](C1CCCC1)NC(=O)O[C@@H]1CCC[C@H]1CC/C=C/Cc1c(nc3ccccc3c1O)O2)C(=O)NS(=O)(=O)C1CC1` [Example 17, (3aR,7S,10S,12R,21E,24aS)-7-cyclopentyl-N-{(1R,2S)-1-[(cyclopropylsulfonyl)carbamoyl]-2-ethenylcyclopropyl}-19-hydroxy-5,8-dioxo-1,2,3,3a,5,6,7,8,11,12,20,23,24,24a-tetradecahydro-10H-9,12-methanocyclopenta[18,19][1,10,3,6]dioxadiazacyclononadecino[11,12-b]quinoline-10-carboxamide], the Ki was 0.45 nM in assay [1] (Ki 3a) and less than 0.016 nM in assay [2].

As for `C=C[C@@H]1C[C@]1(NC(=O)[C@@H]1C[C@@H]2CN1C(=O)[C@H](C1CCCC1)NC(=O)O[C@@H]1CCC[C@H]1CCC/C=C/Cc1c(nc3ccccc3c1O)O2)C(=O)NS(=O)(=O)C1CC1` [Example 18], the Ki turned out to be 12 nM in assay [1] (Ki 3a) and 0.79 nM in assay [2].

Regarding `C=C[C@@H]1C[C@]1(NC(=O)[C@@H]1C[C@@H]2CN1C(=O)[C@H](C1CCCC1)NC(=O)O[C@@]1(C)C[C@@H]1CC/C=C/Cc1c(nc3ccccc3c1O)O2)C(=O)NS(=O)(=O)C1CC1` [Example 20, (1aS,5S,8S,10R,19E,22aS)-5-cyclopentyl-N-{(1R,2S)-1-[(cyclopropylsulfonyl)carbamoyl]-2-ethenylcyclopropyl}-17-hydroxy-1a-methyl-3,6-dioxo-1,1a,3,4,5,6,9,10,18,21,22,22a-dodecahydro-8H-7,10-methanocyclopropa[18,19][1,10,3,6]dioxadiazacyclononadecino[11,12-b]quinoline-8-carboxamide], the Ki in assay [1] (Ki 3a) was 22 nM; in assay [2] it was 0.55 nM.
